In patent US20200080091A1, “Methods for Treating Obesity of a Subject Suffering from Obesity” (NAKAJIMA Toshihiro, priority 2012, published 2020):

How the values were obtained:
synoviolin protein = molecular target: T1, synoviolin protein (Homo sapiens, UniProt Q86TM6); details: disclosed in Japanese Patent Application Publication No. 2008-74753; cited from earlier work
T1 construct: MBP-Syno ΔTM-His means synoviolin in which transmembrane domain has been deleted

3T3-L1 cells = experiment: adipocyte differentiation induction of 3T3-L1 cells (Oil Red O staining); type: cell-based, mice; details: 200 μmol siRNA introduced by Lipofectamine2000 two days before induction of differentiation; compared to a control; FIG. 4
Description: 3T3-L1 cells, which are preadipocytes of mice, were cultivated in Dulbecco's Modified Eagle Medium (DMEM; High Glucose) containing 10% fetal bovine serum (FBS) for 3 days after reaching confluent state. 500 μM of isobutyl-methylxanthine (IBMX), 1 μM of Dexamethasone, and 5 μg/mL of Insulin were added to induce differentiation. At the same time, 10 μM of LS-102 (ubiquitination activity inhibitor of synoviolin) or DMSO was added. After cultivation for 3 days, the medium was replaced with medium containing 4 μg/mL of Insulin and 10 μM of LS-102 or DMSO was added. After cultivation for 3 days, the medium was replaced with DMEM (High Glucose) containing 10% FBS to cultivate for 3 days. For siRNA, 200 μmol of siRNA Syno770 (sense strand consists of the following SEQ ID NO: 2) was introduced by the Lipofectamine2000 two days before induction of differentiation.
After the cultivated 3T3-L1 cells were washed with PBS(−) (Phosphate Buffered Saline solution from which magnesium and calcium had been eliminated), the cells were fixed by 10% formalin. The cells were washed with the PBS(−) to be replaced with 60% isopropanol. After staining for 20 minutes with 18 mg/ml of Oil Red 0 (solvent Isopropanol), the cells were washed with 60% isopropanol and PBS(−) and observed by a microscope.

T1 sequence (Q86TM6 246-617 limits assumed): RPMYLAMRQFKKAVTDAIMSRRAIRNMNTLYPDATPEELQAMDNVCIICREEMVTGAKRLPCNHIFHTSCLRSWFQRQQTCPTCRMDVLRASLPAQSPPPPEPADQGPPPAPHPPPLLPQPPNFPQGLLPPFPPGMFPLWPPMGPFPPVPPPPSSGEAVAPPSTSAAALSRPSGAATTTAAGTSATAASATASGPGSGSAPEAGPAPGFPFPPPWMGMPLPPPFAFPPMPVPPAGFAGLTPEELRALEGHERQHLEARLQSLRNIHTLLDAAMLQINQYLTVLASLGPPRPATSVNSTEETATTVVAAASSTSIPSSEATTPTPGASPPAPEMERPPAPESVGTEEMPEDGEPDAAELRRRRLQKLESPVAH

| Compound | self-ubiquitination of synoviolin protein (synoviolin protein) | differentiation of adipose cells (3T3-L1 cells) |
| --- | --- | --- |
| O=c1c(O)c(-c2ccc(O)c(O)c2)oc2cc(O)cc(O)c12 [quercetin, 2-(3,4-dihydroxyphenyl)-3,5,7-trihydroxy-4H-1-benzopyrano-4-on] | inhibit | – |
| CC1=CC(=O)c2c(O)cccc2C1=O [plumbagin, 2-methyl-5-hydroxy-1,4-naphthoquinone] | inhibit | – |
| 5′ -GCUGUGACAGAUGCCAUCA-3′ [siRNA Syno770] | – | differentiation has been suppressed |
